In patent US8546579B2, “Bicycloheteroaryl compounds as P2X7 modulators and uses thereof” (Evotec (US) Inc., priority 2006, dated 2013):

Biological target: T1, P2X7 receptor (Homo sapiens, UniProt Q99572)
T1 construct: host or cells: THP-1 cells differentiated with LPS and IFN-γ
T1 sequence (Q99572 1-595): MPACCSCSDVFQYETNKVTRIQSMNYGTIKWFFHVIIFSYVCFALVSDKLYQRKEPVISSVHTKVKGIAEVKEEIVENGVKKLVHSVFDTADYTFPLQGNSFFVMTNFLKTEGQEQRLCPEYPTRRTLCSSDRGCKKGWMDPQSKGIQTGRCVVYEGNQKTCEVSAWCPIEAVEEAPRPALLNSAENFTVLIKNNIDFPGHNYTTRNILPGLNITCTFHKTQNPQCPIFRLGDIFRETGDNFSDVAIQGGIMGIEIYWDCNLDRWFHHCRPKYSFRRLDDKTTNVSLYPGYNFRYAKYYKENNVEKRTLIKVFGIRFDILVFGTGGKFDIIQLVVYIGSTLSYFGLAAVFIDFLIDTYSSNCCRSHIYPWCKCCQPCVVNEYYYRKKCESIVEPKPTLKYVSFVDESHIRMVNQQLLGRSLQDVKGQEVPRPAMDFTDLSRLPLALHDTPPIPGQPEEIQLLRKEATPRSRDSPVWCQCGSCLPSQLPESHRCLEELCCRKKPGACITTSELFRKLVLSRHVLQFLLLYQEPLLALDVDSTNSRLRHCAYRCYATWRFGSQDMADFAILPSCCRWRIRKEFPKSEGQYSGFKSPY
Assay: IL-1β release assay in differentiated THP-1 cells stimulated with BzATP (Example 9)
Format: cell-based
Parameters: inhibition: dose or concentration left out as unconfirmed
Conditions: THP-1; read-out: IL-1β % Inhib.
In short: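 IC50 derived by four-parameter logistic fit of percent inhibition of IL-1β release, measured by ELISA after 45 min stimulation with 250 uM BzATP. Cells: THP-1 differentiated 16 h with 100 ng/mL LPS plus IFN-γ, LPS-primed 2 h, compound added 30 min beforehand.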

Row | inhibition | SMILES
1 | 0 to 25% | COc1c(C)cc(C(=O)Nc2cccc3c(=O)n(CCCN4CCCC4=O)ccc23)cc1C [Compound 1529]
2 | 0 to 25% | O=C1CCCN1CCCn1ccc2c(NC(=O)[C@@]34C[C@@H]5C[C@@H](C[C@@H]3C5)C4)cccc2c1=O [Compound 1532]
3 | 0 to 25% | COc1ccc(CC(=O)Nc2cccc3c(=O)n(CCCN4CCCC4=O)ccc23)c(OC)c1 [Compound 1535]
4 | 0 to 25% | Cc1cc(C(=O)Nc2cccc3c(=O)n(CCCN4CCCC4=O)ccc23)ccc1F [Compound 1536]
5 | 26 to 50% | O=C(CCc1ccc(Cl)cc1)Nc1cccc2c(=O)n(CCCN3CCCC3=O)ccc12 [Compound 1537]
6 | 26 to 50% | CCOc1ccccc1CC(=O)Nc1cccc2c(=O)n(CCCN3CCCC3=O)ccc12 [Compound 1538]
7 | 0 to 25% | Cc1ccc(Cl)c(C(=O)Nc2cccc3c(=O)n(CCCN4CCCC4=O)ccc23)c1 [Compound 1540]
8 | 0 to 25% | Cc1ccc(Cl)cc1C(=O)Nc1cccc2c(=O)n(CCCN3CCCC3=O)ccc12 [Compound 1541]
9 | 0 to 25% | Cc1cccc(C(=O)Nc2cccc3c(=O)n(CCCN4CCCC4=O)ccc23)c1Cl [Compound 1544]
10 | 0 to 25% | COc1ccc(C(=O)Nc2cccc3c(=O)n(CCCN4CCCC4=O)ccc23)cc1C [Compound 1545]
11 | 0 to 25% | O=C(Nc1cccc2c(=O)n(Cc3ccc(OC(F)(F)F)cc3)ccc12)c1ccc(-c2ccccc2)o1 [Compound 1551]
12 | 0 to 25% | COc1cccc(CCC(=O)Nc2cccc3c(=O)n(Cc4ccc(OC(F)(F)F)cc4)ccc23)c1 [Compound 1552]
13 | 0 to 25% | Cc1ccc(C)c(CC(=O)Nc2cccc3c(=O)n(Cc4ccc(OC(F)(F)F)cc4)ccc23)c1 [Compound 1554]
14 | 0 to 25% | O=C(CCc1ccc2c(c1)OCO2)Nc1cccc2c(=O)n(Cc3ccc(OC(F)(F)F)cc3)ccc12 [Compound 1558]
15 | 0 to 25% | O=C(Nc1cccc2c(=O)n(Cc3ccc(OC(F)(F)F)cc3)ccc12)c1ccccc1Cl [Compound 1560]
16 | 0 to 25% | Cc1ccccc1C(=O)Nc1cccc2c(=O)n(Cc3ccc(OC(F)(F)F)cc3)ccc12 [Compound 1562]
17 | 0 to 25% | Cc1cccc(C(=O)Nc2cccc3c(=O)n(Cc4ccc(OC(F)(F)F)cc4)ccc23)c1C [Compound 1563]
18 | 26 to 50% | COc1cc(OC)cc(C(=O)Nc2cccc3c(=O)n(Cc4ccc(OC(F)(F)F)cc4)ccc23)c1 [Compound 1566]
19 | 0 to 25% | Cc1cccc(C(=O)Nc2cccc3c(=O)n(Cc4ccc(OC(F)(F)F)cc4)ccc23)c1 [Compound 1567]
20 | 0 to 25% | CCOc1ccc(C(=O)Nc2cccc3c(=O)n(Cc4ccc(OC(F)(F)F)cc4)ccc23)cc1 [Compound 1568]
21 | 0 to 25% | O=C(Nc1cccc2c(=O)n(Cc3ccc(OC(F)(F)F)cc3)ccc12)c1ccc2ccccc2c1 [Compound 1574]
22 | 0 to 25% | O=C(Cc1ccccc1F)Nc1cccc2c(=O)n(Cc3ccc(OC(F)(F)F)cc3)ccc12 [Compound 1575]
23 | 0 to 25% | O=C(Cc1ccccc1Cl)Nc1cccc2c(=O)n(Cc3ccc(OC(F)(F)F)cc3)ccc12 [Compound 1576]
24 | 0 to 25% | COc1ccccc1CC(=O)Nc1cccc2c(=O)n(Cc3ccc(OC(F)(F)F)cc3)ccc12 [Compound 1577]
25 | 0 to 25% | Cc1ccccc1CC(=O)Nc1cccc2c(=O)n(Cc3ccc(OC(F)(F)F)cc3)ccc12 [Compound 1579]
26 | 0 to 25% | CCOc1ccc(CC(=O)Nc2cccc3c(=O)n(Cc4ccc(OC(F)(F)F)cc4)ccc23)cc1 [Compound 1584]
27 | 26 to 50% | COc1c(C)cc(C(=O)Nc2cccc3c(=O)n(Cc4ccc(OC(F)(F)F)cc4)ccc23)cc1C [Compound 1590]

The next lines start with the molecule.

Row | SMILES | inhibition
28 | Cc1ccc(CC(=O)Nc2cccc3c(=O)n(CCCN4CCCC4=O)ccc23)cc1 [Compound 1524] | 0 to 25%
29 | O=C(CCCc1ccccc1)Nc1cccc2c(=O)n(CCCN3CCCC3=O)ccc12 [Compound 1525] | 0 to 25%
30 | O=C(Nc1cccc2c(=O)n(CCCN3CCCC3=O)ccc12)c1cc2ccccc2o1 [Compound 1526] | 0 to 25%
31 | O=C(Cc1ccc2c(c1)OCO2)Nc1cccc2c(=O)n(CCCN3CCCC3=O)ccc12 [Compound 1527] | 0 to 25%
32 | COc1cc(CC(=O)Nc2cccc3c(=O)n(CCCN4CCCC4=O)ccc23)cc(OC)c1 [Compound 1528] | 0 to 25%
33 | Cc1ccc(C(=O)Nc2cccc3c(=O)n(CCCN4CCCC4=O)ccc23)cc1Cl [Compound 1530] | 26 to 50%
34 | O=C(Nc1cccc2c(=O)n(CCCN3CCCC3=O)ccc12)C(O)c1ccccc1Cl (stereo not drawn) [Compound 1531] | 26 to 50%
35 | O=C(Nc1cccc2c(=O)n(CCCN3CCCC3=O)ccc12)c1cccc2c1OCCO2 [Compound 1533] | 26 to 50%
36 | Cc1c(Cl)cccc1C(=O)Nc1cccc2c(=O)n(CCCN3CCCC3=O)ccc12 [Compound 1534] | 51 to 75%
37 | COc1ccc(CC(=O)Nc2cccc3c(=O)n(CCCN4CCCC4=O)ccc23)cc1C [Compound 1539] | 0 to 25%
38 | Cc1cccc(CCC(=O)Nc2cccc3c(=O)n(CCCN4CCCC4=O)ccc23)c1 [Compound 1542] | 0 to 25%
39 | O=C(Nc1cccc2c(=O)n(CCCN3CCCC3=O)ccc12)c1cc2cc(Cl)ccc2o1 [Compound 1543] | 0 to 25%
40 | Cc1ccc(CCC(=O)Nc2cccc3c(=O)n(CCCN4CCCC4=O)ccc23)c(C)c1 [Compound 1546] | 0 to 25%
41 | O=C(CCc1cccc(Cl)c1)Nc1cccc2c(=O)n(CCCN3CCCC3=O)ccc12 [Compound 1547] | 0 to 25%
42 | COc1ccc(C(=O)Nc2cccc3c(=O)n(Cc4ccc(OC(F)(F)F)cc4)ccc23)c(C)c1 [Compound 1548] | 0 to 25%
43 | C[C@H]1CC[C@H](C(=O)Nc2cccc3c(=O)n(Cc4ccc(OC(F)(F)F)cc4)ccc23)CC1 [Compound 1549] | 0 to 25%
44 | Cc1ccccc1CCC(=O)Nc1cccc2c(=O)n(Cc3ccc(OC(F)(F)F)cc3)ccc12 [Compound 1550] | 0 to 25%
45 | Cc1cc(C)c(CC(=O)Nc2cccc3c(=O)n(Cc4ccc(OC(F)(F)F)cc4)ccc23)c(C)c1 [Compound 1553] | 0 to 25%
46 | COc1ccc(C(=O)Nc2cccc3c(=O)n(Cc4ccc(OC(F)(F)F)cc4)ccc23)cc1Cl [Compound 1555] | 0 to 25%
47 | CCOc1cccc(C(=O)Nc2cccc3c(=O)n(Cc4ccc(OC(F)(F)F)cc4)ccc23)c1 [Compound 1556] | 0 to 25%

Row | SMILES | inhibition
48 | O=C(CCc1ccccc1Cl)Nc1cccc2c(=O)n(Cc3ccc(OC(F)(F)F)cc3)ccc12 [Compound 1557] | 0 to 25%
49 | Cc1cc(C(=O)Nc2cccc3c(=O)n(Cc4ccc(OC(F)(F)F)cc4)ccc23)ccc1Cl [Compound 1559] | 0 to 25%
50 | O=C(Nc1cccc2c(=O)n(Cc3ccc(OC(F)(F)F)cc3)ccc12)c1cc(Cl)ccc1Cl [Compound 1561] | 0 to 25%
51 | Cc1ccc(C(=O)Nc2cccc3c(=O)n(Cc4ccc(OC(F)(F)F)cc4)ccc23)c(C)c1 [Compound 1564] | 0 to 25%
52 | Cc1ccc(C)c(C(=O)Nc2cccc3c(=O)n(Cc4ccc(OC(F)(F)F)cc4)ccc23)c1 [Compound 1565] | 0 to 25%
53 | CC(C(=O)Nc1cccc2c(=O)n(Cc3ccc(OC(F)(F)F)cc3)ccc12)c1ccccc1 (stereo not drawn) [Compound 1570] | 0 to 25%
54 | COc1ccccc1CCC(=O)Nc1cccc2c(=O)n(Cc3ccc(OC(F)(F)F)cc3)ccc12 [Compound 1571] | 0 to 25%
55 | COc1ccc(CCC(=O)Nc2cccc3c(=O)n(Cc4ccc(OC(F)(F)F)cc4)ccc23)cc1 [Compound 1572] | 0 to 25%
56 | O=C(Cc1cccc2ccccc12)Nc1cccc2c(=O)n(Cc3ccc(OC(F)(F)F)cc3)ccc12 [Compound 1573] | 0 to 25%
57 | COc1ccc(OC)c(CC(=O)Nc2cccc3c(=O)n(Cc4ccc(OC(F)(F)F)cc4)ccc23)c1 [Compound 1578] | 0 to 25%
58 | COc1cccc(CC(=O)Nc2cccc3c(=O)n(Cc4ccc(OC(F)(F)F)cc4)ccc23)c1 [Compound 1580] | 0 to 25%
59 | COc1ccc(CC(=O)Nc2cccc3c(=O)n(Cc4ccc(OC(F)(F)F)cc4)ccc23)cc1OC [Compound 1581] | 0 to 25%
60 | Cc1cccc(CC(=O)Nc2cccc3c(=O)n(Cc4ccc(OC(F)(F)F)cc4)ccc23)c1 [Compound 1582] | 0 to 25%
61 | COc1ccc(CC(=O)Nc2cccc3c(=O)n(Cc4ccc(OC(F)(F)F)cc4)ccc23)cc1 [Compound 1583] | 26 to 50%
62 | Cc1ccc(CC(=O)Nc2cccc3c(=O)n(Cc4ccc(OC(F)(F)F)cc4)ccc23)cc1 [Compound 1585] | 0 to 25%
63 | O=C(CCCc1ccccc1)Nc1cccc2c(=O)n(Cc3ccc(OC(F)(F)F)cc3)ccc12 [Compound 1586] | 0 to 25%
64 | O=C(Nc1cccc2c(=O)n(Cc3ccc(OC(F)(F)F)cc3)ccc12)c1cc2ccccc2o1 [Compound 1587] | 0 to 25%
65 | O=C(Cc1ccc2c(c1)OCO2)Nc1cccc2c(=O)n(Cc3ccc(OC(F)(F)F)cc3)ccc12 [Compound 1588] | 0 to 25%
66 | COc1cc(CC(=O)Nc2cccc3c(=O)n(Cc4ccc(OC(F)(F)F)cc4)ccc23)cc(OC)c1 [Compound 1589] | 0 to 25%
